Test results reported in the supplement of paper PMC10307832.

Assays:
Assay in all cases: relative viability (nuclei count vs DMSO), 5 days (fraction); higher = more cells survive
[1] = tested on: A-427
How it was run: (§1)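 Relative viability is defined as nuclei in treated wells over nuclei in vehicle wells. Duplicate plates were run and medians reported. Lung cancer cell lines in 1536-well plates were dosed by pin tool one day after seeding, with one drug or with a fixed anchor-drug dose plus five library-drug doses (not always all listed) in √10 steps, and nuclei were counted after 5 days.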

[2] = tested on: CAL-12T
How it was run: as §1

[3] = tested on: LK-2
How it was run: as §1

[4] = tested on: NCI-H1623
How it was run: as §1

[5] = tested on: NCI-H1650
How it was run: as §1

[6] = tested on: NCI-H1734
How it was run: as §1

[7] = tested on: NCI-H2009
How it was run: as §1

[8] = tested on: UMC-11
How it was run: as §1

Compound: CCN(CC)CCCCNc1ncc2cc(-c3cc(OC)cc(OC)c3)c(NC(=O)NC(C)(C)C)nc2n1 + CCNC(=O)c1noc(-c2cc(C(C)C)c(O)cc2O)c1-c1ccc(CN2CCOCC2)cc1 [Luminespib] (partner 0.01 µM)
- relative viability ([1]; first compound 0.01 µM): 1.01
- relative viability ([1]; first compound 0.03162 µM): 1.01
- relative viability ([1]; first compound 0.1 µM): 1.09
- relative viability ([1]; first compound 0.3162 µM): 1.03
- relative viability ([1]; first compound 1 µM): 0.872
- relative viability ([2]; first compound 0.01 µM): 0.63
- relative viability ([2]; first compound 0.03162 µM): 0.338
- relative viability ([2]; first compound 0.1 µM): 0.363
- relative viability ([2]; first compound 0.3162 µM): 0.445
- relative viability ([2]; first compound 1 µM): 0.347
- relative viability ([3]; first compound 0.01 µM): 0.153
- relative viability ([3]; first compound 0.03162 µM): 0.207
- relative viability ([3]; first compound 0.1 µM): 0.202
- relative viability ([3]; first compound 0.3162 µM): 0.183
- relative viability ([3]; first compound 1 µM): 0.184
- relative viability ([4]; first compound 0.01 µM): 0.605
- relative viability ([4]; first compound 0.03162 µM): 0.54
- relative viability ([4]; first compound 0.1 µM): 0.443
- relative viability ([4]; first compound 0.3162 µM): 0.607
- relative viability ([4]; first compound 1 µM): 0.722
- relative viability ([5]; first compound 0.01 µM): 0.227
- relative viability ([5]; first compound 0.03162 µM): 0.214
- relative viability ([5]; first compound 0.1 µM): 0.204
- relative viability ([5]; first compound 0.3162 µM): 0.206
- relative viability ([5]; first compound 1 µM): 0.203
- relative viability ([6]; first compound 0.01 µM): 0.0982
- relative viability ([6]; first compound 0.03162 µM): 0.189
- relative viability ([6]; first compound 0.1 µM): 0.19
- relative viability ([6]; first compound 0.3162 µM): 0.197
- relative viability ([6]; first compound 1 µM): 0.178
- relative viability ([7]; first compound 0.01 µM): 1.15
- relative viability ([7]; first compound 0.03162 µM): 0.983
- relative viability ([7]; first compound 0.1 µM): 1.13
- relative viability ([7]; first compound 0.3162 µM): 1.1
- relative viability ([7]; first compound 1 µM): 0.931
- relative viability ([8]; first compound 0.01 µM): 1.05
- relative viability ([8]; first compound 0.03162 µM): 1.08
- relative viability ([8]; first compound 0.1 µM): 1.25
- relative viability ([8]; first compound 0.3162 µM): 1.04
- relative viability ([8]; first compound 1 µM): 0.94

Compound: O=c1cc(-c2cccc3c2Sc2ccccc2S3)oc(N2CCOCC2)c1 + Cc1nc(Nc2ncc(C(=O)Nc3c(C)cccc3Cl)s2)cc(N2CCN(CCO)CC2)n1 [Dasatinib] (partner 0.075 µM)
- relative viability ([1]; first compound 0.08 µM): 0.695
- relative viability ([1]; first compound 0.253 µM): 0.871
- relative viability ([1]; first compound 0.8 µM): 0.744
- relative viability ([1]; first compound 8 µM): 0.884
- relative viability ([2]; first compound 0.08 µM): 0.339
- relative viability ([2]; first compound 0.253 µM): 0.415
- relative viability ([2]; first compound 0.8 µM): 0.298
- relative viability ([2]; first compound 2.53 µM): 0.34
- relative viability ([2]; first compound 8 µM): 0.27
- relative viability ([3]; first compound 0.08 µM): 0.306
- relative viability ([3]; first compound 0.253 µM): 0.252
- relative viability ([3]; first compound 0.8 µM): 0.267
- relative viability ([3]; first compound 2.53 µM): 0.145
- relative viability ([3]; first compound 8 µM): 0.263
- relative viability ([4]; first compound 0.08 µM): 0.488
- relative viability ([4]; first compound 0.253 µM): 0.568
- relative viability ([4]; first compound 0.8 µM): 0.501
- relative viability ([4]; first compound 2.53 µM): 0.57
- relative viability ([4]; first compound 8 µM): 0.536
- relative viability ([5]; first compound 0.08 µM): 0.327
- relative viability ([5]; first compound 0.253 µM): 0.339
- relative viability ([5]; first compound 0.8 µM): 0.259
- relative viability ([5]; first compound 2.53 µM): 0.241
- relative viability ([5]; first compound 8 µM): 0.267
- relative viability ([6]; first compound 0.08 µM): 0.469
- relative viability ([6]; first compound 0.253 µM): 0.49
- relative viability ([6]; first compound 0.8 µM): 0.503
- relative viability ([6]; first compound 8 µM): 0.513
- relative viability ([7]; first compound 0.08 µM): 0.298
- relative viability ([7]; first compound 0.253 µM): 0.301
- relative viability ([7]; first compound 0.8 µM): 0.29
- relative viability ([7]; first compound 2.53 µM): 0.235
- relative viability ([7]; first compound 8 µM): 0.254
- relative viability ([8]; first compound 0.08 µM): 0.537
- relative viability ([8]; first compound 0.253 µM): 0.591
- relative viability ([8]; first compound 0.8 µM): 0.535
- relative viability ([8]; first compound 2.53 µM): 0.433
- relative viability ([8]; first compound 8 µM): 0.752

Compound: O=c1cc(-c2cccc3c2Sc2ccccc2S3)oc(N2CCOCC2)c1 + CCNC(=O)c1noc(-c2cc(C(C)C)c(O)cc2O)c1-c1ccc(CN2CCOCC2)cc1 [Luminespib] (partner 0.01 µM)
- relative viability ([1]; first compound 0.08 µM): 0.92
- relative viability ([1]; first compound 0.253 µM): 1.18
- relative viability ([1]; first compound 0.8 µM): 1.01
- relative viability ([1]; first compound 2.53 µM): 0.842
- relative viability ([1]; first compound 8 µM): 1.09
- relative viability ([2]; first compound 0.08 µM): 0.277
- relative viability ([2]; first compound 0.253 µM): 0.708
- relative viability ([2]; first compound 0.8 µM): 0.506
- relative viability ([2]; first compound 2.53 µM): 0.299
- relative viability ([2]; first compound 8 µM): 0.207
- relative viability ([3]; first compound 0.08 µM): 0.184
- relative viability ([3]; first compound 0.253 µM): 0.184
- relative viability ([3]; first compound 0.8 µM): 0.151
- relative viability ([3]; first compound 2.53 µM): 0.22
- relative viability ([3]; first compound 8 µM): 0.176
- relative viability ([4]; first compound 0.08 µM): 0.615
- relative viability ([4]; first compound 0.253 µM): 0.589
- relative viability ([4]; first compound 0.8 µM): 0.472
- relative viability ([4]; first compound 2.53 µM): 0.411
- relative viability ([4]; first compound 8 µM): 0.495
- relative viability ([5]; first compound 0.08 µM): 0.189
- relative viability ([5]; first compound 0.253 µM): 0.199
- relative viability ([5]; first compound 0.8 µM): 0.199
- relative viability ([5]; first compound 2.53 µM): 0.186
- relative viability ([5]; first compound 8 µM): 0.209
- relative viability ([6]; first compound 0.08 µM): 0.195
- relative viability ([6]; first compound 0.253 µM): 0.175
- relative viability ([6]; first compound 0.8 µM): 0.228
- relative viability ([6]; first compound 8 µM): 0.2
- relative viability ([7]; first compound 0.08 µM): 1.07
- relative viability ([7]; first compound 0.253 µM): 1.1
- relative viability ([7]; first compound 0.8 µM): 1.01
- relative viability ([7]; first compound 2.53 µM): 0.939
- relative viability ([7]; first compound 8 µM): 1
- relative viability ([8]; first compound 0.08 µM): 1.07
- relative viability ([8]; first compound 0.253 µM): 1.22
- relative viability ([8]; first compound 0.8 µM): 1.19
- relative viability ([8]; first compound 2.53 µM): 1.25
- relative viability ([8]; first compound 8 µM): 1.34

Compound: COc1nc(C)cnc1NS(=O)(=O)c1cccnc1-c1ccc(-c2nnco2)cc1 [Zibotentan] + CCNC(=O)c1noc(-c2cc(C(C)C)c(O)cc2O)c1-c1ccc(CN2CCOCC2)cc1 [Luminespib] (partner 0.01 µM)
- relative viability ([1]; first compound 0.08 µM): 1.16
- relative viability ([1]; first compound 0.253 µM): 0.857
- relative viability ([1]; first compound 0.8 µM): 0.998
- relative viability ([1]; first compound 2.53 µM): 0.911
- relative viability ([2]; first compound 0.08 µM): 0.598
- relative viability ([2]; first compound 0.253 µM): 0.123
- relative viability ([2]; first compound 0.8 µM): 0.415
- relative viability ([2]; first compound 2.53 µM): 0.418
- relative viability ([3]; first compound 0.08 µM): 0.216
- relative viability ([3]; first compound 0.253 µM): 0.208
- relative viability ([3]; first compound 0.8 µM): 0.168
- relative viability ([3]; first compound 2.53 µM): 0.154
- relative viability ([4]; first compound 0.08 µM): 0.427
- relative viability ([4]; first compound 0.8 µM): 0.445
- relative viability ([4]; first compound 2.53 µM): 0.486
- relative viability ([5]; first compound 0.08 µM): 0.177
- relative viability ([5]; first compound 0.8 µM): 0.204
- relative viability ([5]; first compound 2.53 µM): 0.195
- relative viability ([6]; first compound 0.08 µM): 0.19
- relative viability ([6]; first compound 0.253 µM): 0.164
- relative viability ([6]; first compound 0.8 µM): 0.195
- relative viability ([6]; first compound 2.53 µM): 0.262
- relative viability ([7]; first compound 0.08 µM): 0.959
- relative viability ([7]; first compound 0.253 µM): 1.03
- relative viability ([7]; first compound 0.8 µM): 1.08
- relative viability ([7]; first compound 2.53 µM): 1
- relative viability ([8]; first compound 0.08 µM): 1.1
- relative viability ([8]; first compound 0.253 µM): 0.974
- relative viability ([8]; first compound 0.8 µM): 0.978
- relative viability ([8]; first compound 2.53 µM): 0.997

Compound: O=c1cc(N2CCOCC2)oc2c(-c3cccc4c3sc3ccccc34)cccc12 + Cc1nc(Nc2ncc(C(=O)Nc3c(C)cccc3Cl)s2)cc(N2CCN(CCO)CC2)n1 [Dasatinib] (partner 0.075 µM)
- relative viability ([1]; first compound 0.01 µM): 0.728
- relative viability ([1]; first compound 0.03162 µM): 0.766
- relative viability ([1]; first compound 0.1 µM): 0.677
- relative viability ([1]; first compound 0.3162 µM): 0.636
- relative viability ([1]; first compound 1 µM): 0.792
- relative viability ([2]; first compound 0.01 µM): 0.322
- relative viability ([2]; first compound 0.03162 µM): 0.531
- relative viability ([2]; first compound 0.1 µM): 0.49
- relative viability ([2]; first compound 0.3162 µM): 0.317
- relative viability ([2]; first compound 1 µM): 0.295
- relative viability ([3]; first compound 0.01 µM): 0.329
- relative viability ([3]; first compound 0.03162 µM): 0.289
- relative viability ([3]; first compound 0.1 µM): 0.338
- relative viability ([3]; first compound 0.3162 µM): 0.339
- relative viability ([3]; first compound 1 µM): 0.279
- relative viability ([4]; first compound 0.01 µM): 0.456
- relative viability ([4]; first compound 0.03162 µM): 0.517
- relative viability ([4]; first compound 0.1 µM): 0.402
- relative viability ([4]; first compound 0.3162 µM): 0.5
- relative viability ([4]; first compound 1 µM): 0.438
- relative viability ([5]; first compound 0.01 µM): 0.34
- relative viability ([5]; first compound 0.03162 µM): 0.33
- relative viability ([5]; first compound 0.1 µM): 0.315
- relative viability ([5]; first compound 0.3162 µM): 0.287
- relative viability ([5]; first compound 1 µM): 0.276
- relative viability ([6]; first compound 0.01 µM): 0.498
- relative viability ([6]; first compound 0.03162 µM): 0.517
- relative viability ([6]; first compound 0.1 µM): 0.49
- relative viability ([6]; first compound 0.3162 µM): 0.439
- relative viability ([6]; first compound 1 µM): 0.415
- relative viability ([7]; first compound 0.01 µM): 0.317
- relative viability ([7]; first compound 0.03162 µM): 0.268
- relative viability ([7]; first compound 0.1 µM): 0.303
- relative viability ([7]; first compound 0.3162 µM): 0.277
- relative viability ([7]; first compound 1 µM): 0.256
- relative viability ([8]; first compound 0.01 µM): 0.452
- relative viability ([8]; first compound 0.03162 µM): 0.471
- relative viability ([8]; first compound 0.1 µM): 0.487
- relative viability ([8]; first compound 0.3162 µM): 0.439
- relative viability ([8]; first compound 1 µM): 0.527
